Test results reported in article PMC5025780, “Copper(II) ions affect the gating dynamics of the 20S proteasome: a molecular and in cell study” (Scientific Reports, 2016).
Where two headings read alike, the source gives them in different places.

Experiments:
[1] = tested on: proteasome ChT-L activity in HeLa cells; assay: Proteasome-Glo Chymotrypsin-Like Cell-Based Assay in intact HeLa cells; parameters: species or system human; details: for Copper-induced proteasome inhibition in cells pretreated with NAC: 100 μM NAC pretreatment 24 h
Protocol: HeLa cells (human cervix carcinoma), were cultured in Dulbecco’s MEM medium (Life Technologies) supplemented with 10% of fetal calf serum (FCS, Life Technologies), glutamax (Invitrogen), 100 U/mL penicillin, 100 µg/mL streptomycin. Cells were routinely grown as stocks in 75 cm^2 flasks in a humidified atmosphere (95% air, 5% CO2) at 37 °C.
The ChT-L proteolytic activity of the proteasome in intact HeLa cells were determined using the Proteasome-Glo™ Chymotrypsin-Like Cell-Based Assay (Promega) according to manufacturer's instructions. Briefly, 800 cells/well were grown in 384 sterile multiwells (optical plate and white walls) in 50 μl of DMEM + FBS10% + PenStrep 1%. After 4 h of cell seeding, Cu(II) was added in cell medium in a concentration range 10–80 μM for 24 h. Then the medium was removed and replaced with FCS free medium. To determine whether or not the residual proteolytic measured was dependent on to proteasome rather than other proteases, we performed a control experiment with epoxomicin, a specific proteasome inhibitor. Epoxomicin (5 μM) was added to the cells 60 min before the proteasome activity assay. The substrate for the β5 ChT-L activity (Suc-LLVY-aminoluciferin) was dissolved in Proteasome-Glo™ Cell-Based Reagent and added to intact cells. After 2 min of shaking for permeabilization and further 10 min of incubation at 25 °C, luminescence was measured with a Varioskan Flash (Thermo) micro plate reader. Proteasome activity in intact cells was also measured by using the internally quenched fluorogenic substrate H2N-K-K(Dabcyl)-K-K-L-L-V-Y-G-E(Edans)-G-R-K-K-R-R-Q-R-R-R- (TED) as described elsewhere. […] The peptide purity was determined by MALDI-TOF experiments carried out with a Bruker Reflex III time-of-flight (TOF) mass spectrometer operating in the reflection mode, and the matrix used was α-cyano 4-hydroxycinnamic. […] TED internalization and cleavage in live HeLa cells was assayed by fluorescence microscopy (see Figure S8 of Supplementary Information).

[2] = tested on: T1, human 20S proteasome (hCP); assay: Native gel electrophoresis of purified hCP (assembly); details: 1 h incubation with 1 and 5 μM Cu(II)
T1 construct: purchased Boston Biochem (Cambridge, MA, USA)
Protocol: Currently, there are only few molecules known to inhibit the ChT-L, C-L, and T-L proteasome activities to the same extent. In principle, these agents are thought to inactivate the CP by upstream events involving protein damage (e.g. oxidation, disassembling of the enzyme into α and β subunits)[29][30] or, as recently reported, to allosteric effects involving proteasome gating. To address these issues, we performed native gel electrophoresis of purified hCP after 1 h incubation with 1 and 5 μM Cu(II) ions (Fig. 1B). […] Thus, we can exclude that Cu(II)-treated hCP could disassemble in α and β subunits. […] To this aim we i) assayed the presence of Cu(I) species in Cu(II)-loaded hCP samples by UV spectroscopy using bathocuproine disulfonic acid sodium salt (BCS) (see Figure S1 of Supporting Information) and ii) monitored the ROS production using fluorescein as a probe whose fluorescence intensity decreases upon reacting with ROS[32]. […]
Proteasome-enriched fractions were subjected to non denaturing native gel electrophoresis, as described elsewhere. […] Peptidolytic activity of proteasome-enriched fractions from cell lysates was evaluated after incubating the gels in a Suc-LLVY-AMC substrate dissolved in 50 mM Tris pH 8.0, 5 mM MgCl2, 1 mM DTT, 1 mM ATP, at 37 °C for 15 min. […] Images of the gels were acquired by Chemidoc (Biorad), and fluorescent bands were quantified by using the Image J software.

[3] = target: T2, human 20S proteasome (hCP), T-L activity; assay: T-L peptidase activity of isolated hCP (fluorogenic substrate); assay type: biochemical
T2 construct: purchased Boston Biochem (Cambridge, MA, USA)
Source text: Purified human 20S proteasome (hCP) and the fluorogenic substrates Suc-LLVY-AMC, Z-Leu-Leu-Glu-AMC, and Ac-Arg-Leu-Arg-AMC used to assay the ChT-L, T-L, and C-L activity, were from Boston Biochem (Cambridge, MA, USA). Bathocuproinedisulfonic acid disodium salt (BCS), dithiothreitol (DTT), N-Acetyl-L-Cysteine (NAC), Sodium dodecylsulphate (SDS) as well as CuCl2 and Zn(NO3)2 were from Sigma-Aldrich (St. Louis, MO). Proteasome inhibitors Epoxomicin were obtained from Enzo Life Science. Wild type 20S proteasome isolated from Saccharomices Cerevisiae (yCP) and a mutant (α3ΔN) where nine residues of the N-terminal tail of the α3 subunit are deleted to provide a permanently open-gate conformations were isolated as described elsewhere.
Peptidase activities of hCP (2 nM) were assayed on in 50 μL Tris 25 mM pH 7.6, at 37 °C with 100 μM of the fluorogenic substrate. hCP was incubated with Cu(II)/Zn(II) ions for 1 h prior activity assays. The fluorescence signal activated by peptide cleavage was recorded at 440 nm (excitation at 360 nm) for 45 min, by a Varioskan (Thermo^©) plate reader in 384 multiwell plates. Three replicates were performed for each data point. Data were reported as normalized percentages of residual activity. The potency (IC50) was calculated from the value of the dose response plot corresponding at a fractional activity of 50%. The IC50 values were determined using a non linear fit of experimental data in according to equation: […]
The midpoint of this function occurs at a fractional activity value of 50%, corresponding to half inhibition of the target enzyme. The IC50 values and their standard errors were deduced from the fitting. To evaluate if copper is a reversible PI, we measured the ChT-L activity of hCP incubated with Cu(II) (2.20 μM) before and after addition of an equimolar amount of EDTA.

Compound: [Cl][Cu][Cl] [Cu(II), CuCl2]
- Copper-induced proteasome inhibition in cells pretreated with NAC ([1]; Cu(II) 80 μM): did not overcome proteasome inhibition
- ChT-L activity in HeLa cells (normalized to untreated controls) ([1]; Cu(II) 20 to 80 μM in medium, 24 h): 60%
- Copper-induced proteasome inhibition in cells pretreated with NAC ([1]; Cu(II) 20–40 μM): completely abolished
- hCP assembly by native gel [2]: only a single band is present at 700 kDa
- IC50 ([3]; hCP 2 nM, 1 h preincubation with ions, Tris 25 mM pH 7.6, 37 °C, no SDS, read-out: IC50 T-L): 1450 nM
- IC50 ([3]; in the presence of 0.018% SDS, other conditions unmodified, read-out: IC50 T-L, Cu(II) + SDS): 1350 nM
